Organism: Rattus norvegicus
Assay: Open TG-GATES - Regimen: Single
Type: toxicity, organism-based, Sprague-Dawley
Set-up: regimen Single, gender Male, age 6 weeks
Conditions: in vivo, po, 0 mg/kg, route gavage, dose level Control; for APTT / Bas / Eos / Fbg / Hb / Ht / Lym / MCH / MCHC / MCV / Mono / Neu / PT / Plat / RBC / Ret / WBC: tissue Blood; for KIDNEY_L / KIDNEY_R / KIDNEY_TOTAL: tissue Kidney; for LIVER: tissue Liver; for A/G / ALP / ALT / AST / BUN / CRE / Ca / Cl / DBIL / GLC / IP / K / LDH / Na / PL / RALB / TBIL / TC / TG / TP / gamma-GTP: tissue Plasma

SMILES: CC(C)C(=O)Nc1ccc([N+](=O)[O-])c(C(F)(F)F)c1 [FLUTAMIDE]
- TERMINAL_BW (3 h): 211.8 g
- APTT (3 h): 18.5 s
- Bas (3 h): 0%
- Eos (3 h): 1%
- Fbg (3 h): 211.2 mg/dL
- Hb (3 h): 13.4 g/dL
- Ht (3 h): 39%
- Lym (3 h): 77%
- MCH (3 h): 22.2 pg
- MCHC (3 h): 34.4%
- MCV (3 h): 64.5 fL
- Mono (3 h): 3.6%
- Neu (3 h): 17.4%
- PT (3 h): 12.7 s
- Plat (3 h): 126.5 x10_4/uL
- RBC (3 h): 604.2 x10_4/ul
- Ret (3 h): 8.3%
- WBC (3 h): 99.3 x10_2/uL
- KIDNEY_L (3 h): 1 g
- KIDNEY_R (3 h): 1 g
- KIDNEY_TOTAL (3 h): 1.9 g
- LIVER (3 h): 10 g
- A/G (3 h): 1.7
- ALP (3 h): 1054 IU/L
- ALT (3 h): 39.4 IU/L
- AST (3 h): 69.6 IU/L
- BUN (3 h): 10.8 mg/dL
- CRE (3 h): 0.3 mg/dL
- Ca (3 h): 11 mg/dL
- Cl (3 h): 103.2 meq/L
- DBIL (3 h): 0.3 mg/dL
- GLC (3 h): 193.4 mg/dL
- IP (3 h): 9.1 mg/dL
- K (3 h): 3.9 meq/L
- LDH (3 h): 165.4 IU/L
- Na (3 h): 140 meq/L
- PL (3 h): 176 mg/dL
- RALB (3 h): 3.5 g/dL
- TBIL (3 h): 0.4 mg/dL
- TC (3 h): 83.2 mg/dL
- TG (3 h): 186 mg/dL
- TP (3 h): 5.5 g/dL
- gamma-GTP (3 h): 1.4 IU/L
- TERMINAL_BW (6 h): 207.5 g
- APTT (6 h): 18.8 s
- Bas (6 h): 0%
- Eos (6 h): 0.6%
- Fbg (6 h): 228 mg/dL
- Hb (6 h): 13.7 g/dL
- Ht (6 h): 39.6%
- Lym (6 h): 80%
- MCH (6 h): 21.9 pg
- MCHC (6 h): 34.5%
- MCV (6 h): 63.3 fL
- Mono (6 h): 3.2%
- Neu (6 h): 15%
- PT (6 h): 12.5 s
- Plat (6 h): 115.8 x10_4/uL
- RBC (6 h): 625.8 x10_4/ul
- Ret (6 h): 7.2%
- WBC (6 h): 108.6 x10_2/uL
- KIDNEY_L (6 h): 0.9 g
- KIDNEY_R (6 h): 0.9 g
- KIDNEY_TOTAL (6 h): 1.9 g
- LIVER (6 h): 9 g
- A/G (6 h): 1.8
- ALP (6 h): 1030.8 IU/L
- ALT (6 h): 37.6 IU/L
- AST (6 h): 65.8 IU/L
- BUN (6 h): 8.4 mg/dL
- CRE (6 h): 0.3 mg/dL
- Ca (6 h): 10.7 mg/dL
- Cl (6 h): 102.6 meq/L
- DBIL (6 h): 0.1 mg/dL
- GLC (6 h): 193.6 mg/dL
- IP (6 h): 9.5 mg/dL
- K (6 h): 4.2 meq/L
- LDH (6 h): 140.8 IU/L
- Na (6 h): 139.8 meq/L
- PL (6 h): 157 mg/dL
- RALB (6 h): 3.5 g/dL
- TBIL (6 h): 0.2 mg/dL
- TC (6 h): 89 mg/dL
- TG (6 h): 51.8 mg/dL
- TP (6 h): 5.6 g/dL
- gamma-GTP (6 h): 1 IU/L
- TERMINAL_BW (9 h): 204.9 g
- APTT (9 h): 18.4 s
- Bas (9 h): 0%
- Eos (9 h): 1%
- Fbg (9 h): 209.2 mg/dL
- Hb (9 h): 13.4 g/dL
- Ht (9 h): 39.4%
- Lym (9 h): 76.8%
- MCH (9 h): 21.6 pg
- MCHC (9 h): 34.2%
- MCV (9 h): 63.3 fL
- Mono (9 h): 2.8%
- Neu (9 h): 18.6%
- PT (9 h): 13.2 s
- Plat (9 h): 128.5 x10_4/uL
- RBC (9 h): 621.8 x10_4/ul
- Ret (9 h): 7.7%
- WBC (9 h): 92.7 x10_2/uL
- KIDNEY_L (9 h): 1 g
- KIDNEY_R (9 h): 1 g
- KIDNEY_TOTAL (9 h): 1.9 g
- LIVER (9 h): 8.3 g
- A/G (9 h): 1.6
- ALP (9 h): 866.2 IU/L
- ALT (9 h): 32.6 IU/L
- AST (9 h): 63.4 IU/L
- BUN (9 h): 10.4 mg/dL
- CRE (9 h): 0.3 mg/dL
- Ca (9 h): 10.1 mg/dL
- Cl (9 h): 103.4 meq/L
- DBIL (9 h): 0.072 mg/dL
- GLC (9 h): 204.6 mg/dL
- IP (9 h): 10.8 mg/dL
- K (9 h): 3.7 meq/L
- LDH (9 h): 146.2 IU/L
- Na (9 h): 141.4 meq/L
- PL (9 h): 126.8 mg/dL
- RALB (9 h): 3.3 g/dL
- TBIL (9 h): 0.1 mg/dL
- TC (9 h): 68.6 mg/dL
- TG (9 h): 43 mg/dL
- TP (9 h): 5.3 g/dL
- gamma-GTP (9 h): 0.8 IU/L
- TERMINAL_BW (24 h): 219.3 g
- APTT (24 h): 17.7 s
- Bas (24 h): 0%
- Eos (24 h): 1%
- Fbg (24 h): 206.4 mg/dL
- Hb (24 h): 13.4 g/dL
- Ht (24 h): 40.4%
- Lym (24 h): 82.2%
- MCH (24 h): 21.8 pg
- MCHC (24 h): 33.3%
- MCV (24 h): 65.7 fL
- Mono (24 h): 3.2%
- Neu (24 h): 13.4%
- PT (24 h): 12.6 s
- Plat (24 h): 126.3 x10_4/uL
- RBC (24 h): 615.6 x10_4/ul
- Ret (24 h): 7.7%
- WBC (24 h): 97.9 x10_2/uL
- KIDNEY_L (24 h): 0.9 g
- KIDNEY_R (24 h): 1 g
- KIDNEY_TOTAL (24 h): 1.9 g
- LIVER (24 h): 10.2 g
- A/G (24 h): 1.7
- ALP (24 h): 878.8 IU/L
- ALT (24 h): 39.8 IU/L
- AST (24 h): 68 IU/L
- BUN (24 h): 14.2 mg/dL
- CRE (24 h): 0.4 mg/dL
- Ca (24 h): 10.3 mg/dL
- Cl (24 h): 103.2 meq/L
- DBIL (24 h): 0.084 mg/dL
- GLC (24 h): 212 mg/dL
- IP (24 h): 7.1 mg/dL
- K (24 h): 3.7 meq/L
- LDH (24 h): 136.2 IU/L
- Na (24 h): 140.6 meq/L
- PL (24 h): 135.2 mg/dL
- RALB (24 h): 3.3 g/dL
- TBIL (24 h): 0.1 mg/dL
- TC (24 h): 77.4 mg/dL
- TG (24 h): 62.6 mg/dL
- TP (24 h): 5.4 g/dL
- gamma-GTP (24 h): 0.8 IU/L

Source: ChEMBL document CHEMBL3885861, “Open TG-GATES”
